Data: patent US8399493B2, “Pyridinone derivatives and their use as positive allosteric modulators of mGluR2-receptors” (Janssen Pharmaceuticals, Inc., priority 2004, dated 2013)
Where a name gives a salt, the structure may show the parent alone.

Row | melting point [°C] | Compound
1 | 120 | COc1cccc(C(O)c2ccc(=O)n(Cc3ccc(Cl)cc3)c2)c1 (centres unmarked) [3-10, 1-(4-Chlorobenzyl)-5-(hydroxy(3-methoxyphenyl)methyl)pyridin-2(1H)-one]
2 | 191 | COc1ncc(-c2ccc(=O)n(Cc3ccc(Cl)cc3)c2)cn1 [2-66]
3 | 155 | O=c1ccc(-c2ccc(CO)cc2)cn1Cc1ccc(Cl)cc1 [2-14]
4 | 180 | O=C(O)Cc1ccc(-c2ccc(=O)n(Cc3ccc(Cl)cc3)c2)cc1 [2-31]
5 | 109 to 112 | Cc1ccc(-c2ccc(=O)n(Cc3ccc(Cl)cc3)c2)cc1F [2-10]
6 | 141 | O=c1ccc(-c2ccc(S(=O)(=O)N3CCOCC3)cc2)cn1Cc1ccc(Cl)cc1F [6-74]
7 | 131 | CC(=O)N(CCCOc1ccc(-c2ccc(=O)n(Cc3ccc(Cl)cc3F)c2)cc1)C(C)=O [6-56]
8 | 126 | COc1ccc(-c2ccc(=O)n(Cc3ccc(OC)nc3)c2)cc1 (as salt: HCl) [4-46]
9 | 72 | COCc1ccc(Cn2cc(-c3ccc(OC)cc3)ccc2=O)cc1 [4-25, 1-(4-(Methoxymethyl)benzyl)-5-(4-methoxyphenyl)pyridin-2(1H)-one]
10 | 114 | COc1ccc(OCc2ccc(=O)n(Cc3ccc(Cl)cc3)c2)cc1 [16-02, 1-(4-Chlorobenzyl)-5-((4-methoxyphenoxy)methyl)pyridin-2(1H)-one]
11 | 142 | O=c1ccc(CNc2ccccc2)cn1Cc1ccc(Cl)cc1 [16-01]
12 | 88 | CC(C)COc1ccc(-c2ccc(=O)n(Cc3ccc(Cl)cc3F)c2)cc1 [6-33]
13 | 72 | O=c1ccc(C2CCCCC2)cn1Cc1ccc(Cl)cc1 [2-01, 1-(4-Chlorobenzyl)-5-cyclohexylpyridin-2(1H)-one]
14 | 120 | COc1ccc(-c2ccc(=O)n(Cc3ccccc3)c2)cc1OC [1-19]
15 | 131 to 132 | COc1ccc(-c2ccc(=O)n(Cc3ccc(C(F)(F)F)cc3)c2)cc1 [4-07]
16 | 82 to 84 | COc1ccc(-c2ccc(=O)n(Cc3ccc(C(F)(F)F)c(F)c3)c2)cc1 [4-35]
17 | 165 | O=c1ccc(-c2cnc3ccccc3c2)cn1Cc1ccc(Cl)cc1 [2-70]
18 | 123 | COc1ccc(-c2ccc(=O)n(Cc3nc(-c4ccc(F)cc4)no3)c2)cc1 [4-42, 1-((3-(4-Fluorophenyl)-1,2,4-oxadiazol-5-yl)methyl)-5-(4-methoxyphenyl)pyridin-2(1H)-one]
19 | 104 | COc1cccc(C(=O)c2ccc(=O)n(Cc3ccc(Cl)cc3)c2)c1 [3-12, 1-(4-Chlorobenzyl)-5-(3-methoxybenzoyl)pyridin-2(1H)-one]
20 | 141 | COc1ccc(-c2ccc(=O)n(Cc3ccc(Cl)cc3F)c2)cc1OC [6-31]
21 | 93 | O=c1cc(OCCc2ccccc2)ccn1Cc1cccc(F)c1 [7-03, 1-(3-Fluorobenzyl)-4-phenethoxypyridin-2(1H)-one]
22 | 102 | O=c1ccc(Br)cn1Cc1ccc(Cl)cc1F [6-20]
23 | 106 | CN(Cc1ccc(=O)n(Cc2ccc(Cl)cc2)c1)c1ccccc1 [3-07, 1-(4-Chlorobenzyl)-5-((methyl(phenyl)amino)methyl)pyridin-1-2(1H)-one]
24 | 112 to 113 | Cc1ccc(-c2ccc(=O)n(Cc3cccc(F)c3)c2)cc1 [6-04]
25 | 197 | CNC(=O)CCc1ccc(-c2ccc(=O)n(Cc3ccc(Cl)cc3)c2)cc1 [2-46]
26 | 145 to 148 | COc1ccc(-c2ccc(=O)n(Cc3ccc4ccccc4c3)c2)cc1 [4-38]
27 | 161 | CN(C)C(=O)Cc1ccc(-c2ccc(=O)n(Cc3ccc(Cl)cc3)c2)cc1 [2-45]

Row | melting point [°C] | Compound
28 | 122 | COc1ccc(-c2ccc(=O)n(Cc3ccccc3C)c2)cc1 [4-05]
29 | 106 | COCCNc1ccc(-c2ccc(=O)n(Cc3ccc(Cl)cc3)c2)cc1 [2-40]
30 | 169 | O=c1ccc(-c2ccc(Cl)nc2)cn1Cc1ccc(Cl)cc1 [2-63]
31 | 130 | COc1ccc(-c2ccc(=O)n(Cc3ccc(OC(F)(F)F)cc3)c2)cc1 [4-31]
32 | 89 | O=c1ccc(COc2ccccc2)cn1Cc1ccc(F)c(F)c1 [16-03, 1-(3,4-Difluorobenzyl)-5-(phenoxymethyl)pyridin-2(1H)-one]
33 | 104 | CN(C)CCCOc1ccc(-c2ccc(=O)n(Cc3ccc(Cl)cc3F)c2)cc1 [6-45]
34 | 119 | O=c1ccc(-c2ccc3c(c2)CCO3)cn1Cc1ccc(Cl)cc1 [2-69]
35 | 120 | COc1ccc(-c2ccc(=O)n(Cc3ccc(C(F)(F)F)o3)c2)cc1 [4-39]
36 | 101 | Cc1ccc(-c2ccc(=O)n(Cc3ccc(Cl)cc3)c2)s1 [2-60]
37 | 73 | CCC(C)c1ccc(-c2ccc(=O)n(Cc3ccc(Cl)cc3)c2)cc1 (centres unmarked) [2-05]
38 | 180 to 181 | COc1ccc(-c2ccc(=O)n(Cc3ccccc3)c2)cn1 [1-29]
39 | 181 | O=c1ccc(-c2ccc3c(c2)OCO3)cn1Cc1ccc(F)c(F)c1 [6-18]
40 | 136 | COc1ccc(-c2ccc(=O)n(Cc3ccc(Cl)cc3F)c2)cn1 [6-51, 1-(4-Chloro-2-fluorobenzyl)-5-(6-methoxypyridin-3-yl)pyridin-2(1H)-one]
41 | 140 | N#Cc1cccc(-c2ccc(=O)n(Cc3ccc(Cl)cc3F)c2)c1 [6-25]
42 | 101 | O=c1ccc(-c2ccc(COCc3ccccc3)cc2)cn1Cc1ccc(Cl)cc1 [2-27]
43 | 165 | O=c1ccc(-c2ccc(CCCO)cc2)cn1Cc1ccc(Cl)cc1 [2-16, 1-(4-Chlorobenzyl)-5-(4-(3-hydroxypropyl)phenyl)pyridin-2(1H)-one]
44 | 176 | CN(C)C(=O)c1ccc(-c2ccc(=O)n(Cc3ccc(Cl)cc3)c2)cc1 [2-43]
45 | 127 | CC(=O)COc1ccc(-c2ccc(=O)n(Cc3ccc(Cl)cc3F)c2)cc1 [6-40, 1-(4-Chloro-2-fluorobenzyl)-5-(4-(2-oxopropoxy)phenyl)pyridin-2(1H)-one]
46 | 104 | COc1ccc(-c2ccc(=O)n(Cc3ccc(Cl)cc3F)c2)cc1C [6-28]
47 | 120 | O=c1ccc(-c2ccc3nccnc3c2)cn1Cc1ccc(Cl)cc1 [2-72]
48 | 103 | COc1ccc(Cn2cc(-c3ccc(OC)cc3)ccc2=O)cc1 [4-23]
49 | 104 | COc1ccc(-c2ccc(=O)n(Cc3noc(-c4ccccc4)n3)c2)cc1 [4-41]
50 | 150 | CC(=O)NCc1ccc(-c2ccc(=O)n(Cc3ccc(Cl)cc3F)c2)cc1 [6-61]
51 | 115 | COc1ccc(-c2ccc(=O)n(Cc3nc4cc(F)ccc4o3)c2)cc1 [4-51, 1-((5-Fluorobenzo[d]oxazol-2-yl)methyl)-5-(4-methoxyphenyl)-pyridin-2(1H)-one]
52 | 230 | CC(=O)Nc1ccc(-c2ccc(=O)n(Cc3ccc(Cl)cc3F)c2)cc1 [6-58]
53 | 112 | COc1ccc(-c2ccc(=O)n(Cc3c(F)cc(F)cc3F)c2)cc1 [4-17]
54 | 177 | O=c1ccc(-c2ccc(S(=O)(=O)N3CCCC3)cc2)cn1Cc1ccc(Cl)cc1F [6-75]

Row | melting point [°C] | Compound
55 | 151 | COc1ccc(-c2ccc(=O)n(Cc3ccc(Cl)cc3)c2)cc1NS(C)(=O)=O [2-56, N-(5-(1-(4-Chlorobenzyl)-6-oxo-1,6-dihydropyridin-3-yl)-2-methoxyphenyl)methanesulfonamide]
56 | 98 | O=c1ccc(-c2cc(F)cc(F)c2)cn1Cc1ccccc1 [1-09]
57 | 191 | COc1ccc(-c2ccc(=O)n(Cc3ccc(Cl)cc3)c2)cn1 [2-62]
58 | 121 | COc1ccc(-c2ccc(=O)n(Cc3nc4ccccc4s3)c2)cc1 [4-53]
59 | 231 | O=c1ccc(-c2ccc(Cc3nn[nH]n3)cc2)cn1Cc1ccc(Cl)cc1 [2-51, 5-(4-((2H-Tetrazol-5-yl)methyl)phenyl)-1-(4-chlorobenzyl)pyridin-2(1H)-one]
60 | 261 | O=c1ccc(-c2ccc3cccnc3c2)cn1Cc1ccc(Cl)cc1 [2-71]
61 | 85 | CN(C)CCOc1ccc(-c2ccc(=O)n(Cc3ccc(Cl)cc3F)c2)cc1 [6-44]
62 | 135 | Cc1cc(COc2ccc(-c3ccc(=O)n(Cc4ccc(Cl)cc4F)c3)cc2)no1 [6-63]
63 | 127 | O=c1ccc(-c2ccc(C(F)(F)F)cc2)cn1Cc1ccc(Cl)cc1F [6-27]
64 | 164 | CN(C)c1ccc(-c2ccc(=O)n(Cc3ccc(Cl)cc3)c2)cn1 [2-64]
65 | 127 to 130 | COc1ccc(-c2ccc(=O)n(Cc3cnc(C)s3)c2)cc1 [4-52]
66 | 110 | Cc1ccc(-c2ccc(=O)n(Cc3ccccc3)c2)cc1 [1-03]
67 | 80 | CCc1ccc(-c2ccc(=O)n(Cc3ccccc3)c2)cc1 [1-04]
68 | 144 to 147 | Cn1ccc2cc(-c3ccc(=O)n(Cc4ccc(Cl)cc4)c3)ccc21 [2-68]
69 | 126 | O=c1ccc(-c2ccc(N3CCOCC3)cc2)cn1Cc1ccc(Cl)cc1 [2-41]
70 | 132 | C[Si](C)(C)c1ccc(-c2ccc(=O)n(Cc3ccccc3)c2)cc1
71 | 109 | COc1ccc(-c2ccc(=O)n(Cc3ccc(F)cc3F)c2)cc1 [4-12]
72 | 109 | CCSc1ccc(-c2ccc(=O)n(Cc3ccc(Cl)cc3)c2)cc1 [2-53]
73 | 112 to 114 | O=c1ccc(-c2ccoc2)cn1Cc1ccc(Cl)cc1 [2-59]
74 | 109 | COCc1ccc(-c2ccc(=O)n(Cc3ccc(Cl)cc3)c2)cc1 [2-24]
75 | 157 | CS(=O)(=O)NCCCOc1ccc(-c2ccc(=O)n(Cc3ccc(Cl)cc3F)c2)cc1 [6-71]
76 | 115 | CCOC(=O)c1ccc(-c2ccc(=O)n(Cc3ccccc3)c2)cc1 [1-24]
77 | 89 | COc1ccc(-c2ccc(=O)n(Cc3cccc(F)c3)c2)cc1 [4-09]
78 | 140 to 144 | O=c1ccc(-c2cnn(Cc3ccccc3)c2)cn1Cc1ccc(Cl)cc1 [2-58]
79 | 153 | CN(C)c1ccc(-c2ccc(=O)n(Cc3ccccc3)c2)cc1 [1-26]
80 | 160 | COc1ccc(-c2ccc(=O)n(Cc3ccc(C(F)(F)F)nc3)c2)cn1 [6-80]
